Holding throughout (type): cell-based, Staphylococcus aureus
One assay relates to S. aureus ATCC 25923. The assay is described as follows: Checkerboard MICs and FIC index, penicillin with bovine LF. As for the experimental part: (§1) The MICs were determined by both macrodilution (1 ml/tube) and microdilution (100 μl/well) in sterile 96 well microtiter plates (International Nunc, Napierville, Ill.) techniques in three separate experiments according to the National Committee for Clinical Laboratory Standards (1992 and 1999) in three separate experiments. Serial 2-fold dilutions in MHB of LF, LFC, antibiotic or combination of LF or LFC with antibiotic were inoculated with an overnight culture at a final inoculum of 10^6 cfu/ml in MHB. Effect of LF combination with antibiotic on MICs were determined by adding 0.5 mg or 1 mg/ml of LF to each antibiotic dilution. The MIC was defined as the lowest concentration of drug (highest dilution) that caused a complete inhibition of bacterial growth after an incubation of 18 h. Effect of LF or LFC combination with antibiotic on MIC was also determined by checkerboard method using 96 well microtiter plates. Each antibiotic dilution (50 μl) was serially added to the wells in vertical rows starting from the top (lower dilution) to the bottom. Lactoferrin or LFC (50 μl) were added to 50 μl of each antibiotic dilution and serially diluted starting at the left (lower dilution) to the right. After inoculation, the final concentration of antibiotic from top to bottom were 32 to 8, 2 to 0.5, 0.5 to 0.125 μg/ml for penicillin, cefazolin and neomycin, respectively. From left to right, the concentration of LF or LFC were 25 to 0.0244 mg/ml or 256 to 0.5 μg/ml respectively in a final volume of 100 μl/well. The microplate's were incubated at 37° C. for 24 h. Bacterial growth was measured optically at 540 nm using Spectra Max 250 Microplate Spectrophotometer System of Molecular Device (Fisher Scientific, Ottawa, Canada). Tubes were incubated at 37° C. for 18 h and bacterial growth was measured by visual examination and optically at 540 nm using a spectrophotometer (Philips PU 8800; Pye Unican Ltd, Cambridge, UK). The fractional inhibitory concentration (FIC) was calculated as described by Eliopoulos and Moellering (1991).
(§2) FIC antibiotic A=MICantibiotic A (in the presence of antibiotic B)/MICantibiotic A alone. FIC Index=FICantibiotic A+FICantibiotic B
(§3) The effects of the antibiotics were considered to be synergistic or indifferent when FIC Index was<1 or>1, respectively.

For assay [1], the system named is S. aureus PC-1. The assay is described as above. The settings on record: by combination with bovine LF. As for the experimental part: as §1, §2, §3
The subject of a further assay is S. aureus SHY97-3906. The assay is described as above. The note with it: for Decrease (of MIC of penicillin): by combination with bovine LF. As for the experimental part: as §1, §2, §3
For assay [2], the system named is S. aureus SHY97-4320. Described as above. The note with it: for Decrease (of MIC of penicillin): by combination with bovine LF. As for the experimental part:
as §1, §2, §3

Assay [3] deals with S. aureus PC-1. As to the kind of experiment: Cell morphology by transmission electron microscopy. The settings on record: penicillin G 8 μg/ml alone; 4-h. As for the experimental part: Bacterial cells were grown overnight on MHA or MHB containing sub-MICs of penicillin G with or without LF or LFC. Microorganisms were prepared for transmission electron microscopy by fixation with glutaraldehyde followed by ferritin labelling. This method allows good- preservation of capsular material. Briefly, bacterial cells grown in the presence or absence of antibiotics were fixed in cacodylate buffer (0.1 M, pH 7.0) containing 5% (v/v) glutaraldehyde, for 2 h at 20° C. Fixed microorganims were suspended in cacodylate buffer and allowed to react with the polycationic ferritin (Sigma Chemicals, St-Louis, Mo.; final concentration 1.0 mg/ml) for 30 min at 20° C. The reaction was slowed down by 10-fold dilution with buffer, and the microorganisms were centrifuged and washed three times in cacodylate buffer. Bacterial cells were then immobilized in 4% (w/v) agar, washed 5 times in cacodylate buffer and post-fixed with 2% (w/v) osmium tetroxide for 2 h. Washings were repeated as above, and the samples dehydrated in a graded series of acetone washes. Samples were then washed twice in propylene oxide and embedded in Spurr low-viscosity resin. Thin sections were post-stained with uranyl acetate and lead citrate and examined with an electron microscope (Philips 201) at an accelerating voltage of 60 kV.
Bacterial cells of PC-1 (a constitutively high producing β-lactamase strain) were grown overnight in MHB containing 8 μg/ml of penicillin G, 16 μg/ml of LFC alone or in combination for 4-h at 37° C. with agitation at 150 rpm. Bacteria cell morphology was evaluated by transmission electron microscopy after fixation and ferritin labelling method as previously described.

Assay [4] deals with β-lactamase activity of S. aureus SHY97-4320. As to the kind of experiment: β-lactamase activity, nitrocefin assay, human LF. The note with it: 8-μg/ml penicillin G alone. As for the experimental part:
Penicillin G was purchased from Novopharm Limited (Toronto, Ontario, Canada). […] Antibiotic stock solutions were always freshly prepared and diluted to the desired concentration in Mueller Hinton broth (MHB) medium (Difco Laboratories, Detroit, MI). β-Lactamase activity was measured using a quantitative spectrophotometric assay with the chromogenic cephalosporin nitrocefin. Bacterial cells were first exposed to penicillin and/or LF during 4 and 22-h in broth. At each time point, the number of cfu/ml were determined and cells aliquots were centrifuged.
The pellets were suspended in 10 mM HEPES buffer (pH 7.4) to an OD415 nm of 0.4 for PC-1 and 4 for strain SHY97-4320. Nitrocefin (100 μM) was added to 20 μl of cells in a final volume of 200 μl. Hydrolysis was measured at 486 nm on a Spectra Max 250 Microplate Spectrophotometer System of Molecular Device (Fisher Scientific, Ottawa, Canada). β-Lactamase activity was expressed as ΔO.D.486 nm/min and corrected for bacterial OD.

Assay [5] concerns S. aureus SHY97-4320. The assay is described as follows: SDS-PAGE protein profile of whole cells. The settings on record: compound alone: 8 μg/ml penicillin G or 1 mg/ml LF; 4-h of growth. As for the experimental part: Staphylococcus aureus SHY97-4320 cells growth in MHB containing test compounds were suspended in electrophoresis sample buffer containing 2% sodium dodecyl sulfate (SDS) and 5% 2-mercaptoethanol to a final concentration of 0.1 g per ml. The samples were heated to 100° C. for 5 min before being loaded for electrophoresis on a discontinuous 0.1% SDS-polyacrylamide gel (SDS PAGE) with 6% polyacrylamide stacking gel and 10 or 12% polyacrylamide running gel. Gels were run on a Mini-Protean® II apparatus (Bio Rad laboratories, Richmond, Calif.). Protein profiles were visualised by staining with coomassie brilliant blue R-250 or by silver staining.

The text below walks through data of patent US20030134779A1, “Method and composition for treatment and/or prevention of antibiotic-resistant microorganism infections” (priority 2002, published 2003).

In general, MIC refers to the lowest concentration found to suppress growth. For the molecule `CC1(C)S[C@@H]2[C@H](NC(=O)Cc3ccccc3)C(=O)N2[C@H]1C(=O)O` [penicillin G, Penicillin G], the MIC in the assay on S. aureus ATCC 25923 (Staphylococcus aureus, ATCC25923, in combination with bovine LF, checkerboard) was 0.0156 µg/mL; in the assay with S. aureus SHY97-3906 (Staphylococcus aureus, SHY973906, in combination with bovine LF, checkerboard), 0.125 µg/mL; in the assay on S. aureus SHY97-4320 [2] (Staphylococcus aureus, SHY974320, in combination with bovine LF, checkerboard) it was 16 µg/mL. Besides, the “Decrease (of MIC of penicillin)” value was 2 fold in the assay with S. aureus ATCC 25923 (by combination with bovine LF); “≧2 fold” in the assay on S. aureus PC-1 [1] (listed as Penicillin); at least 2 fold with S. aureus PC-1 [1] (listed as penicillin); 4 fold with S. aureus SHY97-3906 (listed as Penicillin); “four fold” in the assay with S. aureus SHY97-3906 (listed as penicillin); 4 fold in the assay on S. aureus SHY97-4320 [2] (listed as Penicillin). Also, the “Decrease (of MIC of penicillin)” value in the assay on S. aureus SHY97-4320 [2] (listed as penicillin) is given as “four fold”. Moreover, the cell morphology result with S. aureus PC-1 [3] is listed as “no effects on morphology”. For the same molecule, in assay [4], the β-lactamase activity result was “present”. Also, the “proteins of approximately 59, 42 and 27 kDa in protein profile” value in the assay with S. aureus SHY97-4320 [5] was “can be seen”.
